Measurements published in ChEMBL document CHEMBL3046782, “Fungicidial Activity of Benthiavalicarb-isopropyl against Phytophthora infestans and Its Controlling Activity against Late Blight Diseases” (J Pestic Sci, 2005).
In brackets after ≈: the same amount, converted by molar mass. Activity calls are given as the source filed them. The rule behind the calls is not given here.

Experiments:
[1] = test system: Phytophthora infestans; assay: Antifungal activity against Phytophthora infestans r1234-2 assessed as inhibition of mycelial growth after 5 to 7 days; assay type: functional, organism-based; details: for IC50: read-out: I50
[2] = test system: Phytophthora infestans; assay: Antifungal activity against Phytophthora infestans in potato tuber slices assessed as inhibition of zoosporangia motility at 1 ug/ml after 3 hr relative to control; assay type: functional, organism-based
[3] = test system: Phytophthora infestans; assay: Antifungal activity against Phytophthora infestans in potato tuber slices assessed as inhibition of zoosporangia germination at 0.1 ug/ml after 6 hr relative to control; assay type: functional
[4] = test system: Phytophthora infestans; assay: Antifungal activity against Phytophthora infestans C-3 assessed as inhibition of mycelial growth after 5 to 7 days; assay type: functional, organism-based; details: for IC50: read-out: I50
[5] = test system: Phytophthora infestans; assay: Antifungal activity against Phytophthora infestans r1234 assessed as inhibition of mycelial growth after 5 to 7 days; assay type: functional, organism-based; details: for IC50: read-out: I50
[6] = test system: Phytophthora nicotianae; assay: Antifungal activity against Phytophthora nicotianae IFO 30595 assessed as inhibition of mycelial growth after 5 to 7 days; assay type: functional, organism-based; details: for IC50: read-out: I50
[7] = test system: Phytophthora megasperma; assay: Antifungal activity against Phytophthora megasperma assessed as inhibition of mycelial growth after 5 to 7 days; assay type: functional, organism-based; details: for IC50: read-out: I50
[8] = test system: Phytophthora infestans; assay: Antifungal activity against Phytophthora infestans in potato tuber slices assessed as inhibition of zoosporangia motility at 10 ug/ml after 3 hr relative to control; assay type: functional, organism-based
[9] = test system: Phytophthora infestans; assay: microbe, parasite or virus in culture; assay type: functional; details: Tuber, in Solanum tuberosum, 48 h
[10] = test system: Phytophthora infestans; assay: Antifungal activity against Phytophthora infestans in potato tuber slices assessed as inhibition of zoosporangia release at 10 ug/ml after 3 hr relative to control; assay type: functional
[11] = test system: Phytophthora infestans; assay: Antifungal activity against Phytophthora infestans in potato tuber slices assessed as inhibition of zoosporangia germination at 10 ug/ml after 6 hr relative to control; assay type: functional
[12] = test system: Phytophthora infestans; assay: Antifungal activity against Phytophthora infestans in potato tuber slices assessed as inhibition of cystospore germination at 0.1 ug/ml after 6 hr relative to control; assay type: functional
[13] = test system: Phytophthora infestans; assay: Antifungal activity against Phytophthora infestans TK-301 assessed as inhibition of mycelial growth after 5 to 7 days; assay type: functional, organism-based
[14] = test system: Phytophthora porri; assay: Antifungal activity against Phytophthora porri IFO 30416 assessed as inhibition of mycelial growth after 5 to 7 days; assay type: functional, organism-based; details: for IC50: read-out: I50
[15] = test system: Phytophthora infestans; assay: Antifungal activity against Phytophthora infestans infected tomato assessed as translaminar activity of controlling late blight at 3 to 100 mg/l after 24 hr; assay type: functional, organism-based
[16] = test system: Phytophthora infestans; assay: Antifungal activity against Phytophthora infestans in potato tuber slices assessed as inhibition of zoosporangia release at 100 ug/ml after 3 hr relative to control; assay type: functional
[17] = test system: Phytophthora cactorum; assay: Antifungal activity against Phytophthora cactorum IFO 30474 assessed as inhibition of mycelial growth after 5 to 7 days; assay type: functional, organism-based; details: for IC50: read-out: I50
[18] = test system: Phytophthora infestans; assay: Antifungal activity against Phytophthora infestans r0-3 assessed as inhibition of mycelial growth after 5 to 7 days; assay type: functional, organism-based; details: for IC50: read-out: I50
[19] = test system: Phytophthora infestans; assay: Antifungal activity against Phytophthora infestans in potato tuber slices assessed as inhibition of zoosporangia motility at 100 ug/ml after 3 hr relative to control; assay type: functional, organism-based
[20] = test system: Phytophthora infestans; assay: Antifungal activity against Phytophthora infestans infected tomato assessed as systemic activity of controlling late blight at 100 mg/l after 24 hr; assay type: functional, organism-based
[21] = test system: Phytophthora infestans; assay: Antifungal activity against Phytophthora infestans infected potato plant assessed as control of late blight at 50 to 75 g/ha treated 4 to 5 times at 7 day interval; assay type: functional, organism-based
[22] = test system: Phytophthora infestans; assay: Antifungal activity against Phytophthora infestans infected tomato assessed as control of late blight at 300 mg/l after 24 hr by greenhouse test; assay type: functional, organism-based
[23] = test system: Phytophthora infestans; assay: Antifungal activity against Phytophthora infestans in potato tuber slices assessed as inhibition of zoosporangia release at 1 ug/ml after 3 hr relative to control; assay type: functional
[24] = test system: Phytophthora infestans; assay: microbe, parasite or virus in culture; assay type: functional; details: Tuber, in Solanum tuberosum, 48 h; remark: listed apart in the source
[25] = test system: Phytophthora infestans; assay: Antifungal activity against Phytophthora infestans in potato tuber slices assessed as inhibition of zoosporangia germination at 1 ug/ml after 6 hr relative to control; assay type: functional
[26] = test system: Phytophthora infestans; assay: Antifungal activity against Phytophthora infestans in potato tuber slices assessed as inhibition of cystospore germination at 10 ug/ml after 6 hr relative to control; assay type: functional
[27] = test system: Phytophthora infestans; assay: Antifungal activity against Phytophthora infestans in potato tuber slices assessed as inhibition of cystospore germination at 1 ug/ml after 6 hr relative to control; assay type: functional
[28] = test system: Phytophthora infestans; assay: Antifungal activity against Phytophthora infestans infected tomato assessed as control of late blight at 25 to 50 g/ha treated 4 to 5 times at 7 day interval; assay type: functional, organism-based
[29] = test system: Phytophthora infestans; assay: Antifungal activity against Phytophthora infestans infected tomato assessed as control of late blight at 10 mg/l after 12 hr by greenhouse test; assay type: functional, organism-based
[30] = test system: Phytophthora palmivora; assay: Antifungal activity against Phytophthora palmivora IFO 30285 assessed as inhibition of mycelial growth after 5 to 7 days; assay type: functional, organism-based; details: for IC50: read-out: I50
[31] = test system: Phytophthora katsurae; assay: Antifungal activity against Phytophthora katsurae assessed as inhibition of mycelial growth after 5 to 7 days; assay type: functional, organism-based; details: for IC50: read-out: I50
[32] = test system: Phytophthora infestans; assay: microbe, parasite or virus in culture; assay type: functional; details: Tuber, in Solanum tuberosum, 48 h; remark: listed apart in the source
[33] = test system: Phytophthora capsici; assay: Antifungal activity against Phytophthora capsici IFO 8386 assessed as inhibition of mycelial growth after 5 to 7 days; assay type: functional, organism-based; details: for IC50: read-out: I50

CC(C)OC(=O)N[C@H](C(=O)N[C@H](C)c1nc2ccc(F)cc2s1)C(C)C [BENTHIAVALICARB-ISOPROPYL]
MIC [1]: 0.1 µg/mL (≈ 0.262 µM) | IC50 [1]: 0.03 µg/mL (≈ 0.0786 µM) | inhibition [2]: inactive | inhibition at 0.1 µg/mL [3]: 98.6% | MIC [4]: 0.1 µg/mL (≈ 0.262 µM) | IC50 [4]: 0.03 µg/mL (≈ 0.0786 µM) | MIC [5]: 0.1 µg/mL (≈ 0.262 µM) | IC50 [5]: 0.02 µg/mL (≈ 0.0524 µM) | MIC [6]: 0.1 µg/mL (≈ 0.262 µM) | IC50 [6]: 0.05 µg/mL (≈ 0.131 µM) | MIC [7]: 0.1 µg/mL (≈ 0.262 µM) | IC50 [7]: 0.02 µg/mL (≈ 0.0524 µM) | inhibition [8]: inactive | inhibition at 0.1 µg/mL [9]: 45.2% | inhibition at 10 µg/mL [10]: 0% | inhibition at 10 µg/mL [11]: 100% | inhibition at 0.1 µg/mL [12]: 95.5% | MIC [13]: 0.03 µg/mL (≈ 0.0786 µM) | IC50 ([13]; read-out: I50): 0.03 µg/mL (≈ 0.0786 µM) | MIC [14]: 0.1 µg/mL (≈ 0.262 µM) | IC50 [14]: 0.02 µg/mL (≈ 0.0524 µM) | Activity [15]: Active | inhibition at 100 µg/mL [16]: 45.5% | MIC [17]: 0.03 µg/mL (≈ 0.0786 µM) | IC50 [17]: 0.03 µg/mL (≈ 0.0786 µM) | MIC [18]: 0.03 µg/mL (≈ 0.0786 µM) | IC50 [18]: 0.03 µg/mL (≈ 0.0786 µM) | inhibition [19]: inactive | Activity [20]: Active | Activity [21]: Active | Activity [22]: Active | inhibition at 1 µg/mL [23]: 0% | inhibition at 1 µg/mL [24]: 96.8% | inhibition at 1 µg/mL [25]: 100% | inhibition at 10 µg/mL [26]: 100% | inhibition at 1 µg/mL [27]: 100% | Activity [28]: Active | Activity [29]: Active | MIC [30]: 0.1 µg/mL (≈ 0.262 µM) | IC50 [30]: 0.02 µg/mL (≈ 0.0524 µM) | MIC [31]: 0.03 µg/mL (≈ 0.0786 µM) | IC50 [31]: 0.04 µg/mL (≈ 0.105 µM) | inhibition at 10 µg/mL [32]: 97.6% | MIC [33]: 0.03 µg/mL (≈ 0.0786 µM) | IC50 [33]: 0.01 µg/mL (≈ 0.0262 µM)

COCC(=O)N(c1c(C)cccc1C)C(C)C(=O)OC (configuration not stated) [METALAXYL]
MIC [1]: > 10 µg/mL | IC50 [1]: 0.05 µg/mL (≈ 0.179 µM) | MIC [4]: 3 µg/mL (≈ 10.7 µM) | IC50 [4]: 0.15 µg/mL (≈ 0.537 µM) | MIC [5]: 0.3 µg/mL (≈ 1.07 µM) | IC50 [5]: 0.09 µg/mL (≈ 0.322 µM) | MIC [6]: > 3 µg/mL | IC50 [6]: 0.08 µg/mL (≈ 0.286 µM) | MIC [7]: > 100 µg/mL | IC50 [7]: 0.34 µg/mL (≈ 1.22 µM) | MIC [14]: > 3 µg/mL | IC50 [14]: 0.08 µg/mL (≈ 0.286 µM) | MIC [17]: 0.3 µg/mL (≈ 1.07 µM) | IC50 [17]: 0.03 µg/mL (≈ 0.107 µM) | MIC [18]: > 10 µg/mL | IC50 [18]: 0.21 µg/mL (≈ 0.752 µM) | MIC [30]: > 3 µg/mL | IC50 [30]: 0.54 µg/mL (≈ 1.93 µM) | MIC [31]: > 100 µg/mL | IC50 [31]: 0.46 µg/mL (≈ 1.65 µM) | MIC [33]: > 3 µg/mL | IC50 [33]: 0.62 µg/mL (≈ 2.22 µM)
